Columns and labels:
Assay type in all cases: in vivo
Spodoptera littoralis = assay: Example B9: Spodoptera littoralis (Egyptian cotton leaf worm), cotton leaf discs, L1 larvae; details: foliar, 72 h, application rate of 200 ppm, 3 days after infestation, read-out: control in at least one of the three categories (mortality, anti-feedant effect, or growth inhibition)
Procedure, shortened: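 Cotton leaf discs on agar sprayed with aqueous test solutions from 10,000 ppm DMSO stocks, dried, then infested with five L1 larvae. Mortality, anti-feeding and growth inhibition scored against untreated samples 3 days after infestation.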

Myzus persicae [1] = assay: Example B7: Myzus persicae (green peach aphid), intrinsic activity, sucrose solution 24-well; details: 120 h, application rate of 12.5 ppm, 5 days after infestation, read-out: control (mortality)
Procedure, shortened: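 Compounds from 10,000 ppm DMSO stocks were mixed into sucrose solution in wells at a rate of 12.5 ppm. Aphid-infested pea seedlings were placed on a Parafilm membrane over the solution, so aphids fed through it. Mortality was scored 5 days after infestation.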

Euschistus heros = assay: Example B3: Euschistus heros (neotropical brown stink bug), soybean leaves, N2 nymphs; details: 120 h, application rate of 200 ppm, 5 days after infestation, read-out: control in at least one of the two categories (mortality or growth inhibition)
Protocol: Example B3: Euschistus heros (Neotropical Brown Stink Bug)
Soybean leaves on agar in 24-well microtiter plates were sprayed with aqueous test solutions prepared from 10,000 ppm DMSO stock solutions. After drying the leaves were infested with N2 nymphs. The samples were assessed for mortality and growth inhibition in comparison to untreated samples 5 days after infestation.
(§1) The following compounds gave an effect of at least 80% control in at least one of the two categories (mortality or growth inhibition) at an application rate of 200 ppm: […]

Diabrotica balteata = assay: Example B2: Diabrotica balteata (corn root worm), maize sprouts, L2 larvae; details: 96 h, application rate of 200 ppm, 4 days after infestation, read-out: control in at least one of the two categories (mortality or growth inhibition)
Protocol: Example B2: Diabrotica balteata (Corn Root Worm)
Maize sprouts placed onto an agar layer in 24-well microtiter plates were treated with aqueous test solutions prepared from 10,000 ppm DMSO stock solutions by spraying. After drying, the plates were infested with L2 larvae (6 to 10 per well). The samples were assessed for mortality and growth inhibition in comparison to untreated samples 4 days after infestation.
as §1

Plutella xylostella = assay: Example B8: Plutella xylostella (diamond back moth), artificial diet 24-well, eggs; details: 192 h, application rate of 200 ppm, 8 days after infestation, read-out: effect in at least one of the two categories (mortality or growth inhibition)
Procedure, shortened: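 Artificial diet in 24-well plates treated with aqueous dilutions of DMSO stock (10,000 ppm stock) and dried, then infested with Plutella eggs. Mortality and growth inhibition scored versus untreated samples 8 days after infestation.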

Chilo suppressalis = assay: Example B1: Chilo suppressalis (striped rice stemborer), artificial diet, L2 larvae; details: 144 h, application rate of 200 ppm, 6 days after infestation, read-out: control in at least one of the three categories (mortality, anti-feedant effect, or growth inhibition)
Procedure, shortened: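 Artificial diet was treated with aqueous test solutions made from 10,000 ppm DMSO stocks, dried, then infested with L2 larvae (6-8 per well). Mortality, anti-feeding effect and growth inhibition were scored against untreated samples 6 days after infestation, and control was counted when any category exceeded untreated.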

Myzus persicae [2] = assay: Example B5: Myzus persicae (green peach aphid), feeding/contact activity; details: 144 h, application rate of 200 ppm, 6 days after infestation
Protocol: Example B5: Myzus persicae (Green Peach Aphid):Feeding/Contact Activity
Sunflower leaf discs were placed onto agar in a 24-well microtiter plate and sprayed with aqueous test solutions prepared from 10,000 ppm DMSO stock solutions. After drying, the leaf discs were infested with an aphid population of mixed ages. The samples were assessed for mortality 6 days after infestation.

C[C@H](NC(=O)Nc1ccc(C(F)(F)F)nc1Cl)c1ncnn1-c1ncccn1 [Example P18, 1-[2-chloro-6-(trifluoromethyl)-3-pyridyl]-3-[(1S)-1-(2-pyrimidin-2-yl-1,2,4-triazol-3-yl)ethyl]urea]
≥ 80%: percent control (mortality, anti-feedant effect or growth inhibition) at 200 ppm (Spodoptera littoralis) | mortality at 12.5 ppm (Myzus persicae [1]) | percent control (mortality or growth inhibition) at 200 ppm (Euschistus heros)

C[C@H](NC(=O)Nc1ccc(Br)cc1OC(F)F)c1ncnn1-c1ncccn1 [Example P58, 1-[4-bromo-2-(difluoromethoxy)phenyl]-3-[(1S)-1-(2-pyrimidin-2-yl-1,2,4-triazol-3-yl)ethyl]urea]
≥ 80%: percent control (mortality or growth inhibition) at 200 ppm (Diabrotica balteata) | percent control (mortality, anti-feedant effect or growth inhibition) at 200 ppm (Spodoptera littoralis) | percent effect (mortality or growth inhibition) at 200 ppm (Plutella xylostella) | percent control (mortality, anti-feedant effect or growth inhibition) at 200 ppm (Chilo suppressalis) | mortality at 12.5 ppm (Myzus persicae [1]) | mortality at 200 ppm (Myzus persicae [2])

C[C@@H](c1ncnn1-c1ncccn1)N(C)C(=O)N(C)c1cc(OC(F)(F)C(F)F)c(Cl)cc1Cl [Example P132, 1-[2,4-dichloro-5-(1,1,2,2-tetrafluoroethoxy)phenyl]-1,3-dimethyl-3-[(1S)-1-(2-pyrimidin-2-yl-1,2,4-triazol-3-yl)ethyl]urea]
≥ 80%: percent control (mortality or growth inhibition) at 200 ppm (Diabrotica balteata) | percent control (mortality, anti-feedant effect or growth inhibition) at 200 ppm (Spodoptera littoralis) | percent effect (mortality or growth inhibition) at 200 ppm (Plutella xylostella) | percent control (mortality, anti-feedant effect or growth inhibition) at 200 ppm (Chilo suppressalis) | mortality at 12.5 ppm (Myzus persicae [1]) | mortality at 200 ppm (Myzus persicae [2])

C[C@@H](c1ncnn1-c1ncccn1)N(C)C(=O)Nc1cc(OC(F)(F)C(F)F)c(Cl)cc1Cl [Example P133, 3-[2,4-dichloro-5-(1,1,2,2-tetrafluoroethoxy)phenyl]-1-methyl-1-[(1S)-1-(2-pyrimidin-2-yl-1,2,4-triazol-3-yl)ethyl]urea]
≥ 80%: percent control (mortality or growth inhibition) at 200 ppm (Diabrotica balteata) | percent control (mortality, anti-feedant effect or growth inhibition) at 200 ppm (Spodoptera littoralis) | percent effect (mortality or growth inhibition) at 200 ppm (Plutella xylostella) | percent control (mortality, anti-feedant effect or growth inhibition) at 200 ppm (Chilo suppressalis) | mortality at 12.5 ppm (Myzus persicae [1]) | mortality at 200 ppm (Myzus persicae [2])

C[C@H](NC(=O)Nc1cc(OC(F)(F)C(F)F)c(Cl)cc1Cl)c1nccnc1-c1ncccn1 [Example P135, 1-[2,4-dichloro-5-(1,1,2,2-tetrafluoroethoxy)phenyl]-3-[(1S)-1-(3-pyrimidin-2-ylpyrazin-2-yl)ethyl]urea]
≥ 80%: percent control (mortality or growth inhibition) at 200 ppm (Diabrotica balteata) | percent control (mortality, anti-feedant effect or growth inhibition) at 200 ppm (Spodoptera littoralis) | percent effect (mortality or growth inhibition) at 200 ppm (Plutella xylostella) | percent control (mortality, anti-feedant effect or growth inhibition) at 200 ppm (Chilo suppressalis) | mortality at 12.5 ppm (Myzus persicae [1]) | mortality at 200 ppm (Myzus persicae [2])

C[C@@H](c1ncnn1-c1ncccn1)N1COCN(c2cc(OC(F)(F)C(F)F)c(Cl)cc2Cl)C1=O [Example P137, 3-[2,4-dichloro-5-(1,1,2,2-tetrafluoroethoxy)phenyl]-5-[(1S)-1-(2-pyrimidin-2-yl-1,2,4-triazol-3-yl)ethyl]-1,3,5-oxadiazinan-4-one]
≥ 80%: percent control (mortality or growth inhibition) at 200 ppm (Diabrotica balteata) | percent control (mortality, anti-feedant effect or growth inhibition) at 200 ppm (Spodoptera littoralis) | percent effect (mortality or growth inhibition) at 200 ppm (Plutella xylostella) | percent control (mortality, anti-feedant effect or growth inhibition) at 200 ppm (Chilo suppressalis) | mortality at 12.5 ppm (Myzus persicae [1]) | mortality at 200 ppm (Myzus persicae [2])

C[C@H](NC(=O)N(C)c1cc(OC(F)(F)C(F)F)c(Cl)cc1Cl)c1ncnn1-c1ncccn1 [Example P176, 1-[2,4-dichloro-5-(1,1,2,2-tetrafluoroethoxy)phenyl]-1-methyl-3-[(1S)-1-(2-pyrimidin-2-yl-1,2,4-triazol-3-yl)ethyl]urea]
≥ 80%: percent control (mortality or growth inhibition) at 200 ppm (Diabrotica balteata) | percent control (mortality, anti-feedant effect or growth inhibition) at 200 ppm (Spodoptera littoralis) | percent effect (mortality or growth inhibition) at 200 ppm (Plutella xylostella) | percent control (mortality, anti-feedant effect or growth inhibition) at 200 ppm (Chilo suppressalis) | mortality at 12.5 ppm (Myzus persicae [1]) | mortality at 200 ppm (Myzus persicae [2])

Cc1cc(F)c(OS(C)(=O)=O)cc1NC(=O)N[C@@H](C)c1ncnn1-c1ncccn1 [Example P181, [2-fluoro-4-methyl-5-[[(1S)-1-(2-pyrimidin-2-yl-1,2,4-triazol-3-yl)ethyl]carbamoylamino]phenyl] methanesulfonate]
≥ 80%: percent control (mortality, anti-feedant effect or growth inhibition) at 200 ppm (Chilo suppressalis) | mortality at 12.5 ppm (Myzus persicae [1]) | mortality at 200 ppm (Myzus persicae [2])

C[C@H](NC(=O)Nc1cc(C(C)(C)C#N)c(Cl)cc1F)c1ncnn1-c1ncccn1 [Example P202, 1-[4-chloro-5-(1-cyano-1-methyl-ethyl)-2-fluoro-phenyl]-3-[(1S)-1-(2-pyrimidin-2-yl-1,2,4-triazol-3-yl)ethyl]urea]
≥ 80%: percent control (mortality, anti-feedant effect or growth inhibition) at 200 ppm (Spodoptera littoralis) | percent effect (mortality or growth inhibition) at 200 ppm (Plutella xylostella) | percent control (mortality, anti-feedant effect or growth inhibition) at 200 ppm (Chilo suppressalis) | mortality at 12.5 ppm (Myzus persicae [1]) | mortality at 200 ppm (Myzus persicae [2])

COc1cc(Cl)c(NC(=O)N[C@@H](C)c2ncnn2-c2ncccn2)cc1Cl [Example P204, 1-(2,5-dichloro-4-methoxy-phenyl)-3-[(1S)-1-(2-pyrimidin-2-yl-1,2,4-triazol-3-yl)ethyl]urea]
≥ 80%: mortality at 200 ppm (Myzus persicae [2])

C[C@H](NC(=O)Nc1cc(C(F)(F)F)c(Br)cc1Br)c1ncnn1-c1ncccn1 [Example P205, 1-[2,4-dibromo-5-(trifluoromethyl)phenyl]-3-[(1S)-1-(2-pyrimidin-2-yl-1,2,4-triazol-3-yl)ethyl]urea]
≥ 80%: percent control (mortality or growth inhibition) at 200 ppm (Diabrotica balteata) | percent control (mortality, anti-feedant effect or growth inhibition) at 200 ppm (Spodoptera littoralis) | percent effect (mortality or growth inhibition) at 200 ppm (Plutella xylostella) | percent control (mortality, anti-feedant effect or growth inhibition) at 200 ppm (Chilo suppressalis) | mortality at 12.5 ppm (Myzus persicae [1]) | mortality at 200 ppm (Myzus persicae [2])

C[C@H](NC(=O)Nc1cc2c(cc1Cl)C(=O)N(C)C2=O)c1ncnn1-c1ncccn1 [Example P207, 1-(6-chloro-2-methyl-1,3-dioxo-isoindolin-5-yl)-3-[(1S)-1-(2-pyrimidin-2-yl-1,2,4-triazol-3-yl)ethyl]urea]
≥ 80%: mortality at 200 ppm (Myzus persicae [2])

C[C@H](NC(=O)Nc1cnc(Br)cc1Br)c1ncnn1-c1ccc(C#N)cn1 [Example P255, 1-[(1S)-1-[2-(5-cyano-2-pyridyl)-1,2,4-triazol-3-yl]ethyl]-3-(4,6-dibromo-3-pyridyl)urea]
≥ 80%: percent control (mortality, anti-feedant effect or growth inhibition) at 200 ppm (Spodoptera littoralis) | percent effect (mortality or growth inhibition) at 200 ppm (Plutella xylostella) | percent control (mortality, anti-feedant effect or growth inhibition) at 200 ppm (Chilo suppressalis) | percent control (mortality or growth inhibition) at 200 ppm (Euschistus heros)

C[C@H](NC(=O)Nc1cc(OC(F)(F)C(F)F)c(Cl)cc1Cl)c1ncnn1-c1cnccn1 [Example P278, 1-[2,4-dichloro-5-(1,1,2,2-tetrafluoroethoxy)phenyl]-3-[(1S)-1-(2-pyrazin-2-yl-1,2,4-triazol-3-yl)ethyl]urea]
≥ 80%: percent control (mortality or growth inhibition) at 200 ppm (Diabrotica balteata) | percent control (mortality, anti-feedant effect or growth inhibition) at 200 ppm (Spodoptera littoralis) | percent effect (mortality or growth inhibition) at 200 ppm (Plutella xylostella) | percent control (mortality, anti-feedant effect or growth inhibition) at 200 ppm (Chilo suppressalis) | mortality at 12.5 ppm (Myzus persicae [1]) | mortality at 200 ppm (Myzus persicae [2])

C[C@H](NC(=O)Nc1cc(C#N)c(F)cc1F)c1ncnn1-c1ncccn1 [Example P391, 1-(5-cyano-2,4-difluoro-phenyl)-3-[(1S)-1-(2-pyrimidin-2-yl-1,2,4-triazol-3-yl)ethyl]urea]
≥ 80%: percent control (mortality, anti-feedant effect or growth inhibition) at 200 ppm (Chilo suppressalis) | mortality at 12.5 ppm (Myzus persicae [1]) | percent control (mortality or growth inhibition) at 200 ppm (Euschistus heros)
